Data set [1] is described as follows: Decay of ONOO^− followed at 302 nm by UV-visible spectroscopy. On the procedure:
The decay of ONOO^− was followed in the absence and presence of CeO2 NPs (FIG. 2A and Supplementary FIG. 3: Effect of CeO2 NPs on the rate of decay of ONOO— in vitro varying pH. ONOO— (25 μM) was added at various pH's alone and in the presence of CeO2 NPs (100 μM), SiO2 NPs (100 μM), glutathione (GSH) (0.5 mM). (A) Peroxynitrite absorbance followed at 302 nm in 100 mM sodium phosphate buffer at pH 8.6. (N=4). GSH, known general scavenger and SiO2 NPs were added as positive and negative controls, respectively. Rate of ONOO—(black traces) decomposition was increased with CeO2 NPs (blue traces) in a similar manner of GSH (red traces). Rate of decomposition was not affected by presence of SiO2 NPs (green traces). B) 100 mM sodium phosphate buffer at pH 9.5. (N=3). Rate of ONOO—(black traces) decomposition was increased with CeO2 NPs (blue traces) in a similar manner of GSH (red traces). Absorbance was normalized by subtracting the final absorbance from initial absorbance and dividing by the amplitude. As stock solutions of ONOO— contain 0.3 M NaOH, control incubations were performed with equivalent amounts of NaOH. All in vitro experiments were performed using phosphate buffers containing 1 μM DPTA.). The in vitro assays were repeated using various phosphate buffers while varying the pH's. Since carbon dioxide is known to enhance the rate of ONOO^− decomposition (38), the change in absorbance at 302 nm was followed in potassium phosphate buffer (pH 8.0), which was degassed by argon. […] This change of absorbance in response to addition of CeO2 NPs in these studies also mimics the scavenging seen with glutathione, a known antioxidant that protects cells from free radicals and peroxides (39). […]
UV-visible spectroscopy was used to measure decomposition of ONOO^− in the presence and absence of CeO2 NPs. […] Each sample was analyzed for a total of 600 seconds with a cycle time of 0.5 seconds at a wavelength of 302 nm using buffer containing 100 mM sodium phosphate buffer (pH 9.5-8.0) and 1 μM diethylenetriaminepentaacetic acid (DPTA) with or without CeO2 NPs. […]

A short description of data set [2]: ONOO^−-mediated APF oxidation in vitro (fluorescence spectroscopy). The following applies: ONOO^− 20 μM, fluorescence 515 nm (ex. 490 nm). On the procedure: To obtain further insight into the ONOO^− scavenging abilities of CeO2 NPs, the yield of oxidized APF was followed by fluorescent spectroscopy using the oxidizable probe, 3′-(p-aminophenyl) fluorescein (APF) as an indicator (FIG. 2B). APF is an aromatic amino-fluorescein derivative that has little intrinsic fluorescence but undergoes oxidation by only hydroxyl radical, hypochlorate ion, and certain peroxidase intermediates such as ONOO^−, but is inert to NO., O2^⋅− and H2O2 (40).
ONOO^− (20 μM) was added to APF along with varying amounts CeO2 NPs. Glutathione (Fisher, Fair Lawn, N.J.) and uric acid (Avocado, Research Chemicals, Ltd.) known scavengers of ONOO^−, were used as positive controls. Fluorescence at 515 nm (ex. 490 nm) was measured using a Varian Cary Eclipse fluorescence spectrophotometer (Palo Alto, Calif.).

In data set [3] the test system is DRP1 phosphorylation at S616. Put plainly: Western blot of p-DRP1 S616 in neurons. In kind it is cell-based, rat. The following applies: preaggregated Aβ 25-35 10 μM, 6 h; nanoceria 100 nM or NAC 50 μM, 3 h pretreatment.
Procedure: To measure the levels of p-DRP1 S616, neurons were lysed in buffer containing 50 mM Tris-Cl, pH 7.0, 150 mM NaCl, 1 mM MgCl2, 1 mM NaF, 1 mM NaVO4, 1% NP40, 10% glycerol and complete Protease Inhibitor Cocktail Tablets (Roche Applied Science, US). Membranes were blocked with 5% nonfat milk in TBS (pH 8.0) with 0.05% Tween20 for 3 h at room temperature (RT) and were incubated with primary rabbit polyclonal antibodies for p-DRP1 S616 (Cell Signaling) (1:1000) overnight at 4° C. The membranes were then washed four times (5 min) with TBS (0.05% Tween) and incubated for 2 h at room temperature with anti-rabbit horseradish peroxidase-conjugated secondary antibodies (GE Healthcare)(1:15,000) in blocking solution. After 4 washes (5 min) of TBS (0.05% Tween), immunocomplexes were then detected using the Super-Signal West-Dura or Femto chemiluminescent substrates (Pierce, Thermoscientific, Rockford, Ill.). For re-probing the membranes were stripped with Restore Western Blot Stripping Buffer (Thermo-Scientific) according to the manufacturer and incubated with mouse monoclonal antibodies for DRP1 (BD Biosciences, clone 8/DLP1) (1:1000) antibody or with polyclonal rabbit antibodies for β-actin (Cell Signaling) (1:1000).
The next data set relates to cortical neurons. The data set can be described thus: Scoring for neuronal cell death under nitrosative stressors. In kind it is cell-based, rat. To be noted: oligomerized Aβ 25-35 10 μM, 6 h; nanoceria 100 nM or NAC 50 μM, 3 h pretreatment.
The subject of data set [4] is mitochondrial morphology in cortical neurons. The data set can be described thus: Mitochondrial fragmentation in neurons expressing DsRed2-Mito. In kind it is cell-based, rat. To be noted: Aβ 25-35 10 μM, 6 h; nanoceria 100 nM or NAC 50 μM, 3 h pretreatment.
Source text: To test whether nanoceria would prevent the Aβ-induced mitochondrial fragmentation, the mitochondrial morphology by fluorescence microscopy in neurons expressing DsRed2-Mito, a red fluorescent protein targeted to the mitochondrial matrix was visualized.
Cultures were either transfected with DsRed2-Mito on day 5 using LipoFectamine2000® or immunostained for microtubule-associated protein 2 (MAP2) for visualization of processes. […] For Aβ (25-25) treated cultures, Aβ (25-35) or reverse (35-25) was left to oligomerize for 24 h at 25° C. before adding to cultures at 10 μM for 6 h. Cells were fixed in 3.7% formaldehyde and 5% sucrose in PBS for 20 min at 37° C. […] Cells with fragmented mitochondria and condensed chromatin by Hoechst 33342 staining were scored as dead neurons. To evaluate mitochondrial fragmentation and cell death of a large number of neurons, manual scoring was carried out of neurons grown on glass coverslips using conventional fluorescence microscopy.
Neurons were grown on poly-Lysine coated glass cover slips as described before and transfected with DsRed2-Mito after 5 days in vitro (DIV) using Lipofectamine2000®. […] Quantification of mitochondrial fragmentation and neuronal cell death was performed as described (30). Fluorescence microscopy and image acquisition of mitochondrial morphology was performed as previously described (98).
For data set [5] the following is noted: cited from earlier work.

Entries after “also recorded” stand apart in the source; their conditions may differ.

For `N[C@@H](CCC(=O)N[C@@H](CS)C(=O)NCC(=O)O)C(=O)O` [GSH, glutathione], the “rate of ONOO^− decomposition” value in data set [1] (100 mM sodium phosphate buffer pH 8.6, ONOO^− 25 μM, CeO2 NPs 100 μM, SiO2 NPs 100 μM, GSH 0.5 mM) is “increased”; in data set [1] (100 mM sodium phosphate buffer pH 9.5, ONOO^− 25 μM, CeO2 NPs 100 μM, GSH 0.5 mM) it was “increased”. Further, the “oxidation of APF by ONOO^−” value in data set [2] was “prevented the oxidation of APF”.

With `CC(=O)N[C@@H](CS)C(=O)O` [NAC, N-acetyl-L-cysteine], in data set [3], the “Aβ 25-35-induced DRP1 S616 phosphorylation” value was “abolished”. In the data set on cortical neurons, the “cell viability / cell death after Aβ (25-35)” value is reported as “relieved; also recorded: reduced”. Moreover, the “Aβ25-35-induced mitochondrial fragmentation (fluorescence micrographs)” value in data set [4] is given as “prevented”.

For `O=c1[nH]c(=O)c2[nH]c(=O)[nH]c2[nH]1` [uric acid], the “rate of ONOO^− decomposition” value in data set [1] (potassium phosphate buffer pH 8.0, degassed by argon, absorbance 302 nm) is given as “increased”. Besides, the “oxidation of APF by ONOO^−” value in data set [2] is on record as “prevented the oxidation of APF”.

As to nitro-tyrosine, the pKa in data set [5] was 7.4.

The values above are taken from patent publication US9950007B2, “Neuronal protection by cerium oxide nanoparticles” (UNIVERSITY OF CENTRAL FLORIDA RESEARCH FOUNDATION, INC., priority 2011, dated 2018).
